The record followed here is patent publication US8822503B2, “2-pyridone compounds” (Taisho Pharmaceutical Co., Ltd, priority 2009, dated 2014).

Broadly, the pEC50 is −log10 of the EC50, conventionally taken in molar units. A high value points to a low EC50.

pEC50: −log10 of the molar value.

In the assay the target is T1, human liver GK (Homo sapiens, UniProt P35557).
T1 construct: GST (glutathione S-transferase) (N); made in house; host or cells: E. coli
T1 sequence (P35557 1-466 isoform P35557-2): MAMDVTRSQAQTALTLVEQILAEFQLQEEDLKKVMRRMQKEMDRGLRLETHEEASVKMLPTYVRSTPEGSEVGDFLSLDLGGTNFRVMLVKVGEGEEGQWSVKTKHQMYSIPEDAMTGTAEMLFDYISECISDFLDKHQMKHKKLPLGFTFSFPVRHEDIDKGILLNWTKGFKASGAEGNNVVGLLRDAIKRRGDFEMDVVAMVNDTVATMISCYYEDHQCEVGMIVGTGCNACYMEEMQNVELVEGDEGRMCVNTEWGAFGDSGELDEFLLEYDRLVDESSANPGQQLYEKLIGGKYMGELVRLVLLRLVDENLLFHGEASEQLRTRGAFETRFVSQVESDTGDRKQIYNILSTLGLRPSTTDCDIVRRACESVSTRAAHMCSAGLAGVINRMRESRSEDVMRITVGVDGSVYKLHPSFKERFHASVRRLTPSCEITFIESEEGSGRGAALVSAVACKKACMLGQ
In words: GK activation test. Particulars: test compound concentration needed to activate 50% of maximum activation ability; 4 mM 14C-labeled glucose, 2 mM ATP, room temperature, 20 minutes. In kind it is biochemical. The gist of the method: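 GST-tagged human liver GK from E. coli (0.24 μg/well) with 4 mM 14C-glucose, 2 mM ATP in Hepes-KOH pH 7.1, KCl, MgCl2, DTT, 1% DMSO, 20 min room temperature. Labeled glucose 6-phosphate captured on anion resin, eluted and counted. EC50 = concentration giving half of maximal activation.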

Compound `CC(C)c1ccc(/C(=C/[C@H]2CCC(=O)C2)c2ccc(S(C)(=O)=O)cc2)[nH]c1=O` [Example 1-107, 6-{(E)-1-[4-(Methylsulfonyl)phenyl]-2-[(1S)-3-oxocyclopentyl]ethenyl}-3-(propan-2-yl)pyridin-2(1H)-one] had a pEC50 of 6.30 to 8.00.

The compound `CS(=O)(=O)c1ccc(/C(=C\[C@H]2CCC(=O)C2)c2ccc(C3CC3)c(=O)[nH]2)cc1` [Example 1-108, 3-Cyclopropyl-6-{(E)-1-[4-(methylsulfonyl)phenyl]-2-[(1S)-3-oxocyclopentyl]ethenyl}pyridin-2(1H)-one] gave a pEC50 of 6.30 to 8.00. As for `CC(C)c1ccc(/C(=C\C2CCOCC2)c2ccc(Cl)c(=O)[nH]2)cc1` [Example 1-109, 3-Chloro-6-[(E)-1-[4-(propan-2-yl)phenyl]-2-(tetrahydro-2H-pyran-4-yl)ethenyl]pyridin-2(1H)-one], the pEC50 is 5.52 to 6.30.

As for `O=c1[nH]c(/C(=C/C2CCOCC2)c2ccc(S(=O)(=O)C3CC3)cc2)ccc1Cl` [Example 1-110, 3-Chloro-6-[(E)-1-[4-(cyclopropylsulfonyl)phenyl]-2-(tetrahydro-2H-pyran-4-yl)ethenyl]pyridin-2(1H)-one], the pEC50 was 5.52 to 6.30. To `O=c1[nH]c(/C(=C/C2CCOCC2)c2ccc(N3CCOCC3)cc2)ccc1Cl` [Example 1-111, 3-Chloro-6-[(E)-1-[4-(morpholin-4-yl)phenyl]-2-(tetrahydro-2H-pyran-4-yl)ethenyl]pyridin-2(1H)-one] belongs 5.00 to 5.52; to `CC(=O)c1ccc(/C(=C\C2CCOCC2)c2ccc(Cl)c(=O)[nH]2)cc1` [Example 1-112, 6-[(E)-1-(4-Acetylphenyl)-2-(tetrahydro-2H-pyran-4-yl)ethenyl]-3-chloropyridin-2(1H)-one], 5.00 to 5.52.

In turn, `CS(=O)(=O)c1ccc(C/C(=C\C2CCOCC2)c2ccc(Cl)c(=O)[nH]2)cc1` [Example 1-113, 3-Chloro-6-[(1E)-3-[4-(methylsulfonyl)phenyl]-1-(tetrahydro-2H-pyran-4-yl)prop-1-en-2-yl]pyridin-2(1H)-one] showed a pEC50 of 5.00 to 5.52. In turn, `CSc1ccc(C(CC2CCCC2)c2ccc(C)c(=O)[nH]2)cc1` (stereo not drawn) [Example 2-1, 6-{2-Cyclopentyl-1-[4-(methylsulfanyl)phenyl]ethyl}-3-methylpyridin-2(1H)-one] gave a pEC50 of 5.52 to 6.30. With `Cc1ccc(C(CC2CCCC2)c2ccc(S(C)(=O)=O)cc2)[nH]c1=O` (stereo not drawn) [Example 2-2, 6-{2-Cyclopentyl-1-[4-(methylsulfonyl)phenyl]ethyl}-3-methylpyridin-2(1H)-one], the pEC50 was 5.52 to 6.30. As to `Cc1ccc(C(CC2CCCC2)c2ccc(S(=O)(=O)C3CC3)cc2)[nH]c1=O` (stereo not drawn) [Example 2-3, 6-{2-Cyclopentyl-1-[4-(cyclopropylsulfonyl)phenyl]ethyl}-3-methylpyridin-2(1H)-one], the pEC50 is 6.30 to 8.00. For `CSc1ccc(C(CC2CCCC2)c2ccc(C)c(=O)[nH]2)cc1Cl` (stereo not drawn) [Example 2-4, 6-{1-[3-Chloro-4-(methylsulfanyl)phenyl]-2-cyclopentylethyl}-3-methylpyridin-2(1H)-one], the pEC50 is 5.52 to 6.30.

Regarding `Cc1ccc(C(CC2CCCC2)c2ccc(S(C)(=O)=O)c(Cl)c2)[nH]c1=O` (stereo not drawn) [Example 2-5, 6-{1-[3-Chloro-4-(methylsulfonyl)phenyl]-2-cyclopentylethyl}-3-methylpyridin-2(1H)-one], the pEC50 was 5.52 to 6.30. `CCc1ccc(C(CC2CCCC2)c2ccc(SC)cc2)[nH]c1=O` (stereo not drawn) [Example 2-6, 6-{2-Cyclopentyl-1-[4-(methylsulfanyl)phenyl]ethyl}-3-ethylpyridin-2(1H)-one] gave a pEC50 of 5.52 to 6.30. `CCc1ccc(C(CC2CCCC2)c2ccc(S(C)(=O)=O)cc2)[nH]c1=O` (stereo not drawn) [Example 2-7, 6-{2-Cyclopentyl-1-[4-(methylsulfonyl)phenyl]ethyl}-3-ethylpyridin-2(1H)-one]: the pEC50 is 5.52 to 6.30. `CCCc1ccc(C(CC2CCCC2)c2ccc(SC)cc2)[nH]c1=O` (stereo not drawn) [Example 2-8, 6-{2-Cyclopentyl-1-[4-(methylsulfanyl)phenyl]ethyl}-3-propylpyridin-2(1H)-one] had a pEC50 of 5.52 to 6.30. With `CCCc1ccc(C(CC2CCCC2)c2ccc(S(C)(=O)=O)cc2)[nH]c1=O` (stereo not drawn) [Example 2-9, 6-{2-Cyclopentyl-1-[4-(methylsulfonyl)phenyl]ethyl}-3-propylpyridin-2(1H)-one], the pEC50 is 5.52 to 6.30. To `CS(=O)(=O)c1ccc(C(CC2CCCC2)c2ccc(C3CC3)c(=O)[nH]2)cc1` (stereo not drawn) [Example 2-10, 6-{2-Cyclopentyl-1-[4-(methylsulfonyl)phenyl]ethyl}-3-cyclopropylpyridin-2(1H)-one] belongs 5.52 to 6.30; to `CCc1ccc(C(CC2CCCC2)c2ccc(S(=O)(=O)CCCO)cc2)[nH]c1=O` (stereo not drawn) [Example 2-11, 6-(2-Cyclopentyl-1-{4-[(3-hydroxypropyl)sulfonyl]phenyl}ethyl)-3-ethylpyridin-2(1H)-one], 5.52 to 6.30. The figure for `CC(C)c1ccc(C(CC2CCCC2)c2ccc(S(C)(=O)=O)cc2)[nH]c1=O` (stereo not drawn) [Example 2-12, 6-{2-Cyclopentyl-1-[4-(methylsulfonyl)phenyl]ethyl}-3-(propan-2-yl)pyridin-2(1H)-one] is 5.52 to 6.30. `CCN(CC)CCCS(=O)(=O)c1ccc(C(CC2CCCC2)c2ccc(C)c(=O)[nH]2)cc1Cl` (stereo not drawn) [Example 2-13, 6-[1-(3-Chloro-4-{[3-(diethylamino)propyl]sulfonyl}phenyl)-2-cyclopentylethyl]-3-methylpyridin-2(1H)-one]: the pEC50 was 5.52 to 6.30. `Cc1ccc(C(CC2CCCC2)c2ccc(S(=O)(=O)CCCO)c(Cl)c2)[nH]c1=O` (stereo not drawn) [Example 2-14, 6-(1-{3-Chloro-4-[(3-hydroxypropyl)sulfonyl]phenyl}-2-cyclopentylethyl)-3-methylpyridin-2(1H)-one] gave a pEC50 of 5.52 to 6.30.

As for `Cc1ccc(C(CCC2CCCC2)c2ccc(S(=O)(=O)C3CC3)cc2)[nH]c1=O` (stereo not drawn) [Example 2-15, 6-{3-Cyclopentyl-1-[4-(cyclopropylsulfonyl)phenyl]propyl}-3-methylpyridin-2(1H)-one], the pEC50 was 6.30 to 8.00. In turn, `CSc1ccc(C(CC2CCCCC2)c2ccc(C)c(=O)[nH]2)cc1` (stereo not drawn) [Example 2-16, 6-{2-Cyclohexyl-1-[4-(methylsulfanyl)phenyl]ethyl}-3-methylpyridin-2(1H)-one] had a pEC50 of 5.52 to 6.30.

`Cc1ccc(C(CC2CCCCC2)c2ccc(S(C)(=O)=O)cc2)[nH]c1=O` (stereo not drawn) [Example 2-17, 6-{2-Cyclohexyl-1-[4-(methylsulfonyl)phenyl]ethyl}-3-methylpyridin-2(1H)-one] showed a pEC50 of 5.52 to 6.30. To `CSc1ccc(C(CC2CCOCC2)c2ccc(C)c(=O)[nH]2)cc1` (stereo not drawn) [Example 2-18, 3-Methyl-6-{1-[4-(methylsulfanyl)phenyl]-2-(tetrahydro-2H-pyran-4-yl)ethyl}pyridin-2(1H)-one] belongs 5.00 to 5.52. To `Cc1ccc(C(CC2CCOCC2)c2ccc(S(C)(=O)=O)cc2)[nH]c1=O` (stereo not drawn) [Example 2-19, 3-Methyl-6-{1-[4-(methylsulfonyl)phenyl]-2-(tetrahydro-2H-pyran-4-yl)ethyl}pyridin-2(1H)-one] belongs 5.00 to 5.52; to `CSc1ccc(C(CC2CCC(=O)CC2)c2ccc(C)c(=O)[nH]2)cc1` (stereo not drawn) [Example 2-20, 3-Methyl-6-{1-[4-(methylsulfanyl)phenyl]-2-(4-oxocyclohexyl)ethyl}pyridin-2(1H)-one], 5.52 to 6.30.
